In US12247022B2, “Combinations for treatment of NASH/NAFLD and related diseases” (Pfizer Inc., priority 2018, dated 2025):
Where a name gives a salt, the structure may show the parent alone.

Assay: Thermodynamic stability of crystalline form versus water activity
Type: physicochemical
Details: ambient temperature; about 0.2 (20% RH)

Compound	water activity at which the form is thermodynamically stable
COc1cc(C(=O)N2CCC3(CC2)CC(=O)c2c(cnn2C(C)C)C3)cc(-c2ccc(C(=O)O)cc2)n1 [Form 1 of Compound A, 4-(4-(1-isopropyl-7-oxo-1,4,6,7-tetrahydrospiro[indazole-5,4′-piperidine]-1′-carbonyl)-6-methoxypyridin-2-yl)benzoic acid anhydrous tris salt]	< 0.2
COc1cc(C(=O)N2CCC3(CC2)CC(=O)c2c(cnn2C(C)C)C3)cc(-c2ccc(C(=O)O)cc2)n1 [Form 2 of Compound A]	> 0.2
